In patent publication US10457691B2, “Macrocyclic kinase inhibitors and uses thereof” (Dana-Farber Cancer Institute, Inc., priority 2014, dated 2019):

Assays:
Type in all cases: biochemical
[1] = target: EPH-B1 (Homo sapiens, UniProt P54762); test: Protein kinase assay ([γ-32P] ATP), EPH-B1; conditions: read-out: Activity of the protein kinase when treated with compound I-1 (% control)
Description: (§1) In another set of experiments, the activities of the compounds described herein against various protein kinases were determined according to the methods reported in Hastie et al., Nature Protocols, 2006, 1, 968-971.
(§2) Enzyme dilution buffer. This buffer consisted of 50 mM Tris-HCl, pH 7.5, 0.1 mM EGTA, 1 mg ml^−1 bovine serum albumin and 0.1% (vol/vol) 2-mercaptoethanol.
(§3) 10× concentrated assay buffer. An assay buffer of 500 mM Tris-HCl, pH 7.5, 1 mM EGTA, and 100 mM magnesium acetate was used for assay of a wide variety of protein kinases. In some experiments, other cofactors were included (e.g., calcium ions and calmodulin were included for assay of calcium-calmodulindependent protein kinases).
(§4) 1 mM [γ-^32P] ATP. The specific activity of the [γ-^32P] ATP solution was 1×10^5 to 1×10^6 c.p.m. per nmol depending on what was needed to produce an optimal signal/noise ratio. […] To measure the concentration of ATP, a sample of such a stock solution was diluted to 20 μM, and the absorbance of the diluted sample was measured at 259 nm. The absorbance of a 20-μM stock solution of ATP at 259 nm was about 0.31. […] ATP to produce a radioactivity of 1×10^5 to 1×10^6 c.p.m. per nmol. […]
(§5) 13) Measure radioactivity in the samples by Cerenkov counting (e.g., without liquid scintillation fluid) in a liquid scintillation counter using a “^32P program”. […]

[2] = target: MKK2 (Homo sapiens, UniProt P36507); test: Protein kinase assay ([γ-32P] ATP), MKK2; conditions: read-out: Activity of the protein kinase when treated with compound I-1 (% control)
Description: as §1, §2, §3, §4, §5

[3] = target: CSK (Homo sapiens, UniProt P41240); test: Protein kinase assay ([γ-32P] ATP), CSK; conditions: read-out: Activity of the protein kinase when treated with compound I-1 (% control)
Description: as §1, §2, §3, §4, §5

[4] = target: MPSK1 (Homo sapiens, UniProt O75716); test: Protein kinase assay ([γ-32P] ATP), MPSK1; conditions: read-out: Activity of the protein kinase when treated with compound I-1 (% control)
Description: as §1, §2, §3, §4, §5

[5] = target: TTBK1 (Homo sapiens, UniProt Q5TCY1); test: Protein kinase assay ([γ-32P] ATP), TTBK1; conditions: read-out: Activity of the protein kinase when treated with compound I-1 (% control)
Description: as §1, §2, §3, §4, §5

[6] = system: AMPK; test: Protein kinase assay ([γ-32P] ATP), AMPK
Description: as §1, §2, §3, §4, §5

[7] = target: NEK6 (Homo sapiens, UniProt Q9HC98); test: Protein kinase assay ([γ-32P] ATP), NEK6; conditions: read-out: Activity of the protein kinase when treated with compound I-1 (% control)
Description: as §1, §2, §3, §4, §5

[8] = target: TESK1 (Homo sapiens, UniProt Q15569); test: Protein kinase assay ([γ-32P] ATP), TESK1; conditions: read-out: Activity of the protein kinase when treated with compound I-1 (% control)
Description: as §1, §2, §3, §4, §5

[9] = target: TrkA (Homo sapiens, UniProt P04629); test: Protein kinase assay ([γ-32P] ATP), TrkA; conditions: read-out: Activity of the protein kinase when treated with compound I-1 (% control)
Description: as §1, §2, §3, §4, §5

[10] = target: JAK2 (Homo sapiens, UniProt O60674); test: Protein kinase assay ([γ-32P] ATP), JAK2; conditions: read-out: Activity of the protein kinase when treated with compound I-1 (% control)
Description: as §1, §2, §3, §4, §5

[11] = 0.1 μM of compound I-1, DMSO control = 100%
[12] = 1 μM of compound I-1, DMSO control = 100%

TESK1, sequence (Q15569 whole entry, species assumed): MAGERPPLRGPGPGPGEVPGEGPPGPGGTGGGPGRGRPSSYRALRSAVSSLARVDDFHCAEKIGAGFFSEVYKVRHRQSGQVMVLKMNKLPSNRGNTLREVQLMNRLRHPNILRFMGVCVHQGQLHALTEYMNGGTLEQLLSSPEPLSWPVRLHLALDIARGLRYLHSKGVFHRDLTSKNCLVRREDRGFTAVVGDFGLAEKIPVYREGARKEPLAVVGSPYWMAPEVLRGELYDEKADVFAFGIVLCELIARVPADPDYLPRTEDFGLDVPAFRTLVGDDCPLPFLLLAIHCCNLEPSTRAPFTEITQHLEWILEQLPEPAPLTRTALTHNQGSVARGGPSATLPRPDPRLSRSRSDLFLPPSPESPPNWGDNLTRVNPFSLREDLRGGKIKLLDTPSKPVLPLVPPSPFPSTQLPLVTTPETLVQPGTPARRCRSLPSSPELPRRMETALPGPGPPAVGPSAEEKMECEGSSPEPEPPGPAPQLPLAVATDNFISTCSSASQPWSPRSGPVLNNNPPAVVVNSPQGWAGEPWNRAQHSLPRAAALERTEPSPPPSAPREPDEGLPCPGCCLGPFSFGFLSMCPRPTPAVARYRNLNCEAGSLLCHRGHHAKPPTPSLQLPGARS
MPSK1, sequence (O75716 whole entry): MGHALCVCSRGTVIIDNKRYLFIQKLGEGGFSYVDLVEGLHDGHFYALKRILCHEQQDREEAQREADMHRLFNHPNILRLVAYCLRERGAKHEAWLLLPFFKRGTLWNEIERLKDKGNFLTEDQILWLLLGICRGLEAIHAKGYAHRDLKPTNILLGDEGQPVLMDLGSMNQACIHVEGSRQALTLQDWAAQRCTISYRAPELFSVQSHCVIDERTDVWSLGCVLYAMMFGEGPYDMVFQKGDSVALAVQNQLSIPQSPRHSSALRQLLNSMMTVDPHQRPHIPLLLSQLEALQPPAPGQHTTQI
JAK2, sequence (O60674 whole entry): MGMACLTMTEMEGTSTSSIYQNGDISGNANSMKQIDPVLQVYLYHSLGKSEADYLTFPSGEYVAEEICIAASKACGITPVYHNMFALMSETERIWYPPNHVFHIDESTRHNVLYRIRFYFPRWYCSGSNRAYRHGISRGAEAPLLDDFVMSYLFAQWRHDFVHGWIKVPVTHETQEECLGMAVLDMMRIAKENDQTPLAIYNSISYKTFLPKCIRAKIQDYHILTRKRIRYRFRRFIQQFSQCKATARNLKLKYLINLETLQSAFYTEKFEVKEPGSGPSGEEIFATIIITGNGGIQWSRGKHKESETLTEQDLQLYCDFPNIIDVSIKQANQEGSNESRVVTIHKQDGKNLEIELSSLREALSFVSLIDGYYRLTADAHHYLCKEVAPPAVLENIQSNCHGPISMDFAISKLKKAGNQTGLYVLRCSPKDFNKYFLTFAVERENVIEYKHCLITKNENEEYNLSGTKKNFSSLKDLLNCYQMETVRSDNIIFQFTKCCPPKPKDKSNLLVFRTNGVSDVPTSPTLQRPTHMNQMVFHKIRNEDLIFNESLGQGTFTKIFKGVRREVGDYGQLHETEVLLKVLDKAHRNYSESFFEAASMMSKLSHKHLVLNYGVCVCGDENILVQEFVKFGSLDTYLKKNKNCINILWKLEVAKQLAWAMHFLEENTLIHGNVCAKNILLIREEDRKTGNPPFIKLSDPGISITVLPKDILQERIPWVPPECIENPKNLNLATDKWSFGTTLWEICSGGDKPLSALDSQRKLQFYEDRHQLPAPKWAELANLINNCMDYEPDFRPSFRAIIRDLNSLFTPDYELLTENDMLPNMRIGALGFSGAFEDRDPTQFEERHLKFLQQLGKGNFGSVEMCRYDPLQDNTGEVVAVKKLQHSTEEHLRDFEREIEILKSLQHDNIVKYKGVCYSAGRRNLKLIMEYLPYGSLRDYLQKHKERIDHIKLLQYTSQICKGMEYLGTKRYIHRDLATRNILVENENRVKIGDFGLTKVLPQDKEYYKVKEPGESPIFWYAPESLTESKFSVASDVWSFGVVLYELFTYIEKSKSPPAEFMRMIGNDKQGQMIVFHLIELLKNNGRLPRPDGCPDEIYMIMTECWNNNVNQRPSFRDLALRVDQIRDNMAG
TTBK1, sequence (Q5TCY1 whole entry, species assumed): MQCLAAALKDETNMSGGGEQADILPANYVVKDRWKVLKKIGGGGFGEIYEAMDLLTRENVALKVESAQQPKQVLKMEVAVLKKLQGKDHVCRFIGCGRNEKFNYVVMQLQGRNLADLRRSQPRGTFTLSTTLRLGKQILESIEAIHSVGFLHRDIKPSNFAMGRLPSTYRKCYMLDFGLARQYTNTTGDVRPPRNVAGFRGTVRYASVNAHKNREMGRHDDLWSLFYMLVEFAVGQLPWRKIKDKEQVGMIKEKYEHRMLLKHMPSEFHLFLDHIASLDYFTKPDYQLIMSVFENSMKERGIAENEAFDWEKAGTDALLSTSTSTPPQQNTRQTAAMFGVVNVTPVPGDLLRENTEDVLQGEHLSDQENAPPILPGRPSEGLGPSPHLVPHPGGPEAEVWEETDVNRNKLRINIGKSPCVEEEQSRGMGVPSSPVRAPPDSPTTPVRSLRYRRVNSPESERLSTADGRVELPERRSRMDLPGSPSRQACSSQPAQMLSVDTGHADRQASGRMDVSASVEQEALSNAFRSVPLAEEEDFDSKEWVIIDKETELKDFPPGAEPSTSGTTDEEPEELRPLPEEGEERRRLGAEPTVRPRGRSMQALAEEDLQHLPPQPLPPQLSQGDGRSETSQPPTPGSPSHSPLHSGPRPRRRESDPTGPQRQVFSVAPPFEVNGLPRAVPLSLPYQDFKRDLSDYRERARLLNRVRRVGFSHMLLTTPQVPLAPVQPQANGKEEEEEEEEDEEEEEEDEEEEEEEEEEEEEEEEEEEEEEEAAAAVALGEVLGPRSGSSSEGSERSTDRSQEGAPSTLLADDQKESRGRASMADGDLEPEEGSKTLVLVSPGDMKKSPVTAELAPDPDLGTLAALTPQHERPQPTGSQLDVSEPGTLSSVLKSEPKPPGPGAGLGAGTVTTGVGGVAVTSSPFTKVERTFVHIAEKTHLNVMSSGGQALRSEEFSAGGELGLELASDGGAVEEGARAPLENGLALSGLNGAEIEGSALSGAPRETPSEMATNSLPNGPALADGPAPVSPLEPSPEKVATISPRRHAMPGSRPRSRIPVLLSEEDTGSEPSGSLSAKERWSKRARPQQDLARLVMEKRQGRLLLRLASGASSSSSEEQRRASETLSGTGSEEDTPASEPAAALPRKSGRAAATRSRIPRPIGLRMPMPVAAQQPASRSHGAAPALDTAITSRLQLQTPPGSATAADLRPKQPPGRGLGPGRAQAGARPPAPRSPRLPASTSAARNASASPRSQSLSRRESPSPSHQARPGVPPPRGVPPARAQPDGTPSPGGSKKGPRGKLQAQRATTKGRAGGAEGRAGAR
CSK, sequence (P41240 whole entry): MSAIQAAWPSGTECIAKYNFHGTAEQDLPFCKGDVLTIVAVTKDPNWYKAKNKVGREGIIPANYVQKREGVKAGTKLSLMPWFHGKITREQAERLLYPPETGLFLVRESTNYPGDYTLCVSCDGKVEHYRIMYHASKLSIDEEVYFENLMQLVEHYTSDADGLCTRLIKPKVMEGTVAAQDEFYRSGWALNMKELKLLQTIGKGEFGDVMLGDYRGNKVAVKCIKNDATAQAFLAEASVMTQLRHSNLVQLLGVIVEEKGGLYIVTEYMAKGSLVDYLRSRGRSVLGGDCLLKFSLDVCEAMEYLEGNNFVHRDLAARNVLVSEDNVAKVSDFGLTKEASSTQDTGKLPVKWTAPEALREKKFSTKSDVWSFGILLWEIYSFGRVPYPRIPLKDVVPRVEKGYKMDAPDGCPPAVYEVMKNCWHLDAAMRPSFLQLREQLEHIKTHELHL
MKK2, sequence (P36507 whole entry): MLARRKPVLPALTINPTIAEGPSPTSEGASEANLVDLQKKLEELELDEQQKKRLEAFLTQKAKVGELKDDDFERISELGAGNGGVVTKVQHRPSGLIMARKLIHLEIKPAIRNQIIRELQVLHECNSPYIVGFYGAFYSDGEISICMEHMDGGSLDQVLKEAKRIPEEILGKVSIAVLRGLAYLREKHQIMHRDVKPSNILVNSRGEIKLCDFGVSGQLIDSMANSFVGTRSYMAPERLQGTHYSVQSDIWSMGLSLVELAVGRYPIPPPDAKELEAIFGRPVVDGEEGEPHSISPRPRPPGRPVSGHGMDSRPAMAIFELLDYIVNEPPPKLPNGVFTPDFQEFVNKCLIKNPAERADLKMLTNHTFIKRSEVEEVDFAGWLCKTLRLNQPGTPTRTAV
NEK6, sequence (Q9HC98 whole entry): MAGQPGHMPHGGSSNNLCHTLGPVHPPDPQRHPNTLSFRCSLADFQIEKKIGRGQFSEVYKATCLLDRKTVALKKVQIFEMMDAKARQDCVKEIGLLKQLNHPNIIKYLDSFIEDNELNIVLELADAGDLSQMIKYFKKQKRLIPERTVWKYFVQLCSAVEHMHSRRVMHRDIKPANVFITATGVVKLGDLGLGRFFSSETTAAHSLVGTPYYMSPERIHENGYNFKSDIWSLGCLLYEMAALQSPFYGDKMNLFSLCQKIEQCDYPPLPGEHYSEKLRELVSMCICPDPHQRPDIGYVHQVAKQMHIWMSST

## Cc1cccc(C)c1NC(=O)N1C/C=C\COc2cccc(c2)Nc2cc1ncn2 [Compound I-1]
[1]; [11]
  remaining activity at 0.1 µM: 40%
[1]; [12]
  remaining activity at 1 µM: 43%
[2]; [11]
  remaining activity at 0.1 µM: 119%
[2]; [12]
  remaining activity at 1 µM: 77%
[3]; [11]
  remaining activity at 0.1 µM: 101%
[3]; [12]
  remaining activity at 1 µM: 10%
[4]; [11]
  remaining activity at 0.1 µM: 110%
[4]; [12]
  remaining activity at 1 µM: 89%
[5]; [11]
  remaining activity at 0.1 µM: 115%
[5]; [12]
  remaining activity at 1 µM: 80%
[6]; [11]
  Activity of the protein kinase when treated with compound I-1 (% control): 96 % control
[6]; [12]
  Activity of the protein kinase when treated with compound I-1 (% control): 91 % control
[7]; [11]
  remaining activity at 0.1 µM: 91%
[7]; [12]
  remaining activity at 1 µM: 87%
[8]; [11]
  remaining activity at 0.1 µM: 40%
[8]; [12]
  remaining activity at 1 µM: 21%
[9]; [11]
  remaining activity at 0.1 µM: 54%
[9]; [12]
  remaining activity at 1 µM: 76%
[10]; [11]
  remaining activity at 0.1 µM: 100%
[10]; [12]
  remaining activity at 1 µM: 72%
